According to patent US20220175750A1, “SUSTAINED RELEASE FORMULATION FOR LOCAL DELIVERY OF CDK9 INHIBITORS” (The Regents of the University of California, priority 2019, published 2022):

Assays:
[1] = Microparticle drug loading / loading efficiency; format: physicochemical; conditions: for incorporation of inhibitor (adequacy): PLGA
Description: (§1) FIG. 6: Flavopiridol was encapsulated at 1% w/v ratio in PLGA microparticles (MPs) synthesized using Purasorb® PDLG 5004A (Corbion) in methylene chloride at 20% w/v ratio and vortexed vigorously for 30 seconds after addition of polyvinyl alcohol (10%) at 2:1 ratio. The solution was then added dropwise to 1% PVA and mixed overnight, with 3× washes next day and lyophilized overnight. […] FIG. 6B: Linear standard curve for different concentrations of flavopiridol in solution of dissolved PLGA in DMSO acquired with Nanodrop 2000 Spectrophotometer at 274 nm. […] FIG. 6D: SEM image of flavopiridol MPs using a Phillips XL30 Microscope.
Preparation of poly(lactic-co-glycolic) acid (PLGA) or polycaprolactone (PCL) particles with CDK9 inhibitors was performed using a single emulsion-solvent evaporation technique. Briefly, 500 mg of PLGA or PCL was dissolved in 2.5 mL of 2% v/v dimethylsulfoxide in methylene chloride (for PLGA) or chloroform (for PCL). […] The solutions were vortexed at full speed (30 seconds for PLGA or 45 seconds for PCL) to form microparticles. The microparticle suspensions were transferred to 150 mL of 1% poly(vinyl alcohol), and stirred for 24 hours. The particles were pelleted, washed with water, lyophilized and stored at −20° C. for further use. Size distribution was measured using an AccuSizer model 770 optical particle sizer (Particle Sizing Systems).
For example, SNS-032 has a 30.7% loading efficiency, such that of the 2 g of starting SNS-032, about 0.61 g was encapsulated in the PLGA microparticles. Lower amounts of drug encapsulation result in less inhibitor per microparticle. If the loading efficiency decreases below a certain threshold, the amount of microparticles required to deliver a therapeutic dose of the CDK9 inhibitor can become prohibitive (for cost, efficiency, injection volume, and potentially, an adverse reaction of the treated subject to the administered microparticles).

[2] = In vitro release of CDK9 inhibitor from microparticles in PBS-Tween; format: physicochemical; conditions: PLGA
Description: as §1
Flavopiridol release from the particles was quantified over 42 days in PBS-Tween®, by absorbance at 247 nm.
(B) Release: The release characteristics of the microparticles prepared above were determined using the procedure set forth in Example 2.

[3] = as above; format: physicochemical; conditions: PCL
NFκB target genes = assay: Gene expression in primary human chondrocytes treated with IL-1β with or without flavopiridol; format: cell-based
Description: CDK9 inhibition effectively suppresses the transcription of primary inflammatory response genes.
CDK9 inhibitors exert effects on the inflammatory response pathway.

ACL-rupture in mice = assay: Primary response gene mRNA expression after ACL-rupture knee injury, systemic flavopiridol; format: in vivo

incorporation of inhibitor (adequacy) [1] | incorporation of inhibitor (adequacy) ([1]; listed as dinaciclib) | % loading efficiency ([1]; PCL microparticles) [%] | % loading efficiency ([1]; PLGA microparticles) [%] | amount encapsulated in the PLGA microparticles ([1]; of the 2 g of starting SNS-032) | % release ([2]; Day 1) [%] | % release ([2]; Day 3) [%] | % release ([2]; Day 5) [%] | % release ([3]; Day 3) [%] | % release ([3]; Day 7) [%] | Compound | average magnitude of repression (of maximum induction) of IL-1β-induced genes (NFκB target genes; 300 nM flavopiridol, 10 ng/mL IL-1β, 5 hours) [%] | number of IL-1β-induced genes repressed by flavopiridol co-treatment (NFκB target genes; of 67 genes induced by IL-1β (84 NFκB target genes tested)) | repeated versus single administration (IL-1β, IL-6 gene expression) (ACL-rupture in mice; 0, 1, or 2 administrations) | mRNA expression of pro-inflammatory cytokines IL-1β and IL-6 at the injured site (ACL-rupture in mice; 4-8 hours post-injury, intraperitoneal injection) | window after injury during which flavopiridol is effective at preventing transcription of primary response genes (ACL-rupture in mice; delay before administration) | house-keeping gene 18S rRNA, Collagen Type 2 and aggrecan expression (ACL-rupture in mice; mouse, in vivo)
not encapsulated effectively | failed to incorporate an adequate amount | – | – | – | – | – | – | – | – | CCc1cnn2c(NCc3ccc[n+]([O-])c3)cc(N3CCCC[C@H]3CCO)nc12 [Dinaciclib] | – | – | – | – | – | –
– | – | 0.3 | 30.7 | about 0.61 g | 4.0 | 5.4 | 7.0 | 0 | 0 | CC(C)(C)c1cnc(CSc2cnc(NC(=O)C3CCNCC3)s2)o1 [SNS-032] | – | – | – | – | – | –
– | – | – | – | – | – | – | – | – | – | CN1CC[C@H](c2c(O)cc(O)c3c(=O)cc(-c4ccccc4Cl)oc23)[C@H](O)C1 [flavopiridol, 2-(2-chlorophenyl)-5,7-dihydroxy-8-[(3S,4R)-3-hydroxy-1-methyl-4-piperidinyl]-4-chromenone] | > 86 | 59 | more effective than a single administration | effectively and selectively suppressed | at least 3 hours | not affected
– | – | 1.1 | 59.9 | – | 3.4 | 4.8 | 6.5 | 0.36 | 0.43 | Voruciclib | – | – | – | – | – | –
